Data taken from ChEMBL document CHEMBL1149033, “Novel HIV-inhibitory halistanol sulfates F-H from a marine sponge, Pseudoaxinissa digitata” (J Nat Prod, 1994).
Activity calls are given as the source filed them. The calls are words filed in the database; no cut-off is given here.

Experiments:
[1] = system: Human immunodeficiency virus 1; test: Antiviral activity against HIV1 assessed as cytoprotective activity against viral-infection by NCI primary screen; assay type: functional, organism-based
[2] = system: Human immunodeficiency virus 2; test: Antiviral activity against HIV2 assessed as cytoprotective activity against viral-infection by NCI primary screen; assay type: functional, organism-based

CCC(C)(C)C(C)CC[C@@H](C)[C@H]1CC[C@H]2[C@@H]3C[C@H](OS(=O)(=O)[O-])[C@H]4C[C@H](OS(=O)(=O)[O-])[C@@H](OS(=O)(=O)[O-])C[C@]4(C)[C@H]3CC[C@]12C.[Na+].[Na+].[Na+] (some centres undefined) [HALISTANOL SULFATE F]
EC50 [1]: 3 µg/mL
Activity [2]: Active

CC(C)[C@@H](C)CC[C@@H](C)[C@H]1CC[C@H]2[C@@H]3C[C@H](OS(=O)(=O)[O-])[C@H]4C[C@H](OS(=O)(=O)[O-])[C@@H](OS(=O)(=O)[O-])C[C@]4(C)[C@H]3CC[C@]12C.[Na+].[Na+].[Na+] [HALISTANOL SULFATE G SODIUM]
EC50 [1]: 6 µg/mL
Activity [2]: Active
